Reference: patent US10287295B2, “TGF-β inhibitors” (Rigel Pharmaceuticals, Inc., priority 2015, dated 2019)

Tested on: GDF8 signaling (GDF pSMAD, MPC11)
Assay: AlphaScreen SureFire SMAD3 (p-Ser423/425) assay, inhibition of GDF8 signaling
Type: cell-based
Settings: Mus musculus, MPC-11, inhibition of GDF8 signaling, p-SMAD3 readout

SMILES	IC50
Cn1cnc(-c2cccc(Cl)c2)c1-c1ccc2ncsc2c1 [Compound 63, 6-(4-(3-Chlorophenyl)-1-methyl-1H-imidazol-5-yl)benzo[d]thiazole]	60 nM
CCc1nc(-c2ccc(F)c(C)c2)c(-c2ccc3nccnc3c2)[nH]1 [Compound 112, 6-(2-Ethyl-4-(4-fluoro-3-methylphenyl)-1H-imidazol-5-yl)quinoxaline]	280 nM
CCc1nc(-c2ccc(F)c(C)c2)c(-c2ccc3[nH]ncc3c2)[nH]1 [Compound 106, 5-(2-Ethyl-4-(4-fluoro-3-methylphenyl)-1H-imidazol-5-yl)-1H-indazole]	150 nM
Cc1nc(-c2cc(F)c(F)c(F)c2)c(-c2ccc3ncsc3c2)[nH]1 [Compound 93, 6-(2-Methyl-4-(3,4,5-trifluorophenyl)-1H-imidazol-5-yl)benzo[d]thiazole]	300 nM
Clc1cccc(-c2nc[nH]c2-c2ccc3ncsc3c2)c1 [Compound 25, 6-(4-(3-Chlorophenyl)-1H-imidazol-5-yl)benzo[d]thiazole]	40 nM
Cc1nc(-c2ccc(F)c(C)c2)c(-c2ccc3[nH]ncc3c2)[nH]1 [Compound 71, 5-(4-(4-Fluoro-3-methylphenyl)-2-methyl-1H-imidazol-5-yl)-1H-indazole]	90 nM
Cc1cccc(-c2nc[nH]c2-c2ccc3cn[nH]c3c2)c1 [Compound 16, 6-(4-(m-Tolyl)-1H-imidazol-5-yl)-1H-indazole]	20 nM
Clc1ccc(-c2nc[nH]c2-c2ccc3[nH]ncc3c2)cc1 [Compound 6, 5-(4-(4-Chlorophenyl)-1H-imidazol-5-yl)-1H-indazole]	160 nM
Cc1cc(-c2ncn(C)c2-c2ccc3ncsc3c2)ccc1F [Compound 9, 6-(4-(4-Fluoro-3-methylphenyl)-1-methyl-1H-imidazol-5-yl)benzo[d]thiazole]	60 nM
Cc1nc(-c2ccc(F)c(F)c2)c(-c2ccc3ncn(C)c3c2)[nH]1 [Compound 85, 6-(4-(3,4-Difluorophenyl)-2-methyl-1H-imidazol-5-yl)-1-methyl-1H-benzo[d]imidazole]	180 nM
Cc1nc(-c2ccc(F)c(C)c2)c(-c2ccc3cn[nH]c3c2)[nH]1 [Compound 72, 6-(4-(4-Fluoro-3-methylphenyl)-2-methyl-1H-imidazol-5-yl)-1H-indazole]	100 nM
Cc1cc(-c2nc(C)n(C)c2-c2ccc3cn[nH]c3c2)ccc1F [Compound 53, 6-(4-(4-Fluoro-3-methylphenyl)-1,2-dimethyl-1H-imidazol-5-yl)-1H-indazole]	780 nM
Fc1cccc(-c2nc[nH]c2-c2ccc3ncccc3c2)c1 [Compound 40, 6-(4-(3-Fluorophenyl)-1H-imidazol-5-yl)quinoline]	460 nM

More lines, now with the values ahead:

IC50	SMILES
252 nM	Nc1nc(-c2cccc(F)c2)c(-c2ccc3ncsc3c2)s1 [Compound 178, 5-(benzo[d]thiazol-6-yl)-4-(3-fluorophenyl)thiazol-2-amine]
66.3 nM	Nc1nc(-c2cccc(Cl)c2)c(-c2ccc3nccn3c2)s1 [Compound 164, 4-(3-chlorophenyl)-5-(imidazo[1,2-a]pyridin-6-yl)thiazol-2-amine]
460 nM	CCc1nc(-c2cccc(Cl)c2)c(-c2ccc3ncccc3c2)[nH]1 [Compound 128, 6-(4-(3-Chlorophenyl)-2-ethyl-1H-imidazol-5-yl)quinoline]
54 nM	COc1ccc(-c2nc(N)sc2-c2ccc3nccn3c2)cc1 [Compound 163, 5-(imidazo[1,2-a]pyridin-6-yl)-4-(4-methoxyphenyl)thiazol-2-amine]
180 nM	CCc1nc(-c2cccc(C)c2)c(-c2ccc3cn[nH]c3c2)[nH]1 [Compound 114, 6-(2-Ethyl-4-(m-tolyl)-1H-imidazol-5-yl)-1H-indazole]
38.5 nM	Cc1cc(-c2nc(N)sc2-c2ccc3[nH]ncc3c2)ccc1F [Compound 160, 4-(4-fluoro-3-methylphenyl)-5-(1H-indazol-5-yl)thiazol-2-amine]
301 nM	Nc1nc(-c2cccc(C(F)(F)F)c2)c(-c2ccc3nccnc3c2)s1 [Compound 180, 5-(quinoxalin-6-yl)-4-(3-(trifluoromethyl)phenyl)thiazol-2-amine]
124 nM	COc1ccc(-c2nc(N)sc2-c2ccc3cn[nH]c3c2)cc1 [Compound 173, 5-(1H-indazol-6-yl)-4-(4-methoxyphenyl)thiazol-2-amine]
550 nM	CCc1nc(-c2ccc(F)c(F)c2)c(-c2ccc3ncnn3c2)[nH]1 [Compound 132, 6-(4-(3,4-Difluorophenyl)-2-ethyl-1H-imidazol-5-yl)-[1,2,4]triazolo[1,5-a]pyridine]

Tested on: TGF-β signaling (TGF-β pSMAD, MPC-11)
Assay: AlphaScreen SureFire SMAD3 (p-Ser423/425) assay, inhibition of TGF-β signaling
Type: cell-based
Settings: Mus musculus, MPC-11, inhibition of TGF-β signaling, p-SMAD3 readout

SMILES	IC50
Cn1cnc(-c2cccc(Cl)c2)c1-c1ccc2ncsc2c1 [Compound 63, 6-(4-(3-Chlorophenyl)-1-methyl-1H-imidazol-5-yl)benzo[d]thiazole]	230 nM
CCc1nc(-c2ccc(F)c(C)c2)c(-c2ccc3nccnc3c2)[nH]1 [Compound 112, 6-(2-Ethyl-4-(4-fluoro-3-methylphenyl)-1H-imidazol-5-yl)quinoxaline]	1370 nM
CCc1nc(-c2ccc(F)c(C)c2)c(-c2ccc3[nH]ncc3c2)[nH]1 [Compound 106, 5-(2-Ethyl-4-(4-fluoro-3-methylphenyl)-1H-imidazol-5-yl)-1H-indazole]	920 nM
Cc1nc(-c2cc(F)c(F)c(F)c2)c(-c2ccc3ncsc3c2)[nH]1 [Compound 93, 6-(2-Methyl-4-(3,4,5-trifluorophenyl)-1H-imidazol-5-yl)benzo[d]thiazole]	2340 nM
Clc1cccc(-c2nc[nH]c2-c2ccc3ncsc3c2)c1 [Compound 25, 6-(4-(3-Chlorophenyl)-1H-imidazol-5-yl)benzo[d]thiazole]	60 nM
Cc1nc(-c2ccc(F)c(C)c2)c(-c2ccc3[nH]ncc3c2)[nH]1 [Compound 71, 5-(4-(4-Fluoro-3-methylphenyl)-2-methyl-1H-imidazol-5-yl)-1H-indazole]	800 nM
Cc1cccc(-c2nc[nH]c2-c2ccc3cn[nH]c3c2)c1 [Compound 16, 6-(4-(m-Tolyl)-1H-imidazol-5-yl)-1H-indazole]	100 nM
Clc1ccc(-c2nc[nH]c2-c2ccc3[nH]ncc3c2)cc1 [Compound 6, 5-(4-(4-Chlorophenyl)-1H-imidazol-5-yl)-1H-indazole]	620 nM
Cc1cc(-c2ncn(C)c2-c2ccc3ncsc3c2)ccc1F [Compound 9, 6-(4-(4-Fluoro-3-methylphenyl)-1-methyl-1H-imidazol-5-yl)benzo[d]thiazole]	330 nM
Cc1nc(-c2ccc(F)c(F)c2)c(-c2ccc3ncn(C)c3c2)[nH]1 [Compound 85, 6-(4-(3,4-Difluorophenyl)-2-methyl-1H-imidazol-5-yl)-1-methyl-1H-benzo[d]imidazole]	670 nM
Cc1nc(-c2ccc(F)c(C)c2)c(-c2ccc3cn[nH]c3c2)[nH]1 [Compound 72, 6-(4-(4-Fluoro-3-methylphenyl)-2-methyl-1H-imidazol-5-yl)-1H-indazole]	970 nM
Cc1cc(-c2nc(C)n(C)c2-c2ccc3cn[nH]c3c2)ccc1F [Compound 53, 6-(4-(4-Fluoro-3-methylphenyl)-1,2-dimethyl-1H-imidazol-5-yl)-1H-indazole]	3340 nM
Fc1cccc(-c2nc[nH]c2-c2ccc3ncccc3c2)c1 [Compound 40, 6-(4-(3-Fluorophenyl)-1H-imidazol-5-yl)quinoline]	1220 nM

Now from value to molecule:

IC50	SMILES
1100 nM	Nc1nc(-c2cccc(F)c2)c(-c2ccc3ncsc3c2)s1 [Compound 178, 5-(benzo[d]thiazol-6-yl)-4-(3-fluorophenyl)thiazol-2-amine]
218 nM	Nc1nc(-c2cccc(Cl)c2)c(-c2ccc3nccn3c2)s1 [Compound 164, 4-(3-chlorophenyl)-5-(imidazo[1,2-a]pyridin-6-yl)thiazol-2-amine]
1480 nM	CCc1nc(-c2cccc(Cl)c2)c(-c2ccc3ncccc3c2)[nH]1 [Compound 128, 6-(4-(3-Chlorophenyl)-2-ethyl-1H-imidazol-5-yl)quinoline]
168 nM	COc1ccc(-c2nc(N)sc2-c2ccc3nccn3c2)cc1 [Compound 163, 5-(imidazo[1,2-a]pyridin-6-yl)-4-(4-methoxyphenyl)thiazol-2-amine]
1130 nM	CCc1nc(-c2cccc(C)c2)c(-c2ccc3cn[nH]c3c2)[nH]1 [Compound 114, 6-(2-Ethyl-4-(m-tolyl)-1H-imidazol-5-yl)-1H-indazole]
99.8 nM	Cc1cc(-c2nc(N)sc2-c2ccc3[nH]ncc3c2)ccc1F [Compound 160, 4-(4-fluoro-3-methylphenyl)-5-(1H-indazol-5-yl)thiazol-2-amine]
621 nM	Nc1nc(-c2cccc(C(F)(F)F)c2)c(-c2ccc3nccnc3c2)s1 [Compound 180, 5-(quinoxalin-6-yl)-4-(3-(trifluoromethyl)phenyl)thiazol-2-amine]
898 nM	COc1ccc(-c2nc(N)sc2-c2ccc3cn[nH]c3c2)cc1 [Compound 173, 5-(1H-indazol-6-yl)-4-(4-methoxyphenyl)thiazol-2-amine]
1390 nM	CCc1nc(-c2ccc(F)c(F)c2)c(-c2ccc3ncnn3c2)[nH]1 [Compound 132, 6-(4-(3,4-Difluorophenyl)-2-ethyl-1H-imidazol-5-yl)-[1,2,4]triazolo[1,5-a]pyridine]
